Values belong to the molecule of their own block, whether it stands above or below them.
How the values were obtained:
[1] = system: Mesenteric artery; assay: Vasodilating activity in Wistar rat endothelium intact main mesenteric artery assessed as inhibition of U46619-induced contractions at 30 uM relative to control; type: functional
[2] = system: Mesenteric artery; assay: Vasodilating activity against U46619-induced contractions in Wistar rat endothelium intact main mesenteric artery assessed as increase in sensitivity relative to scopoletin; type: functional
[3] = system: Mesenteric artery; assay: Vasodilating activity in Wistar rat endothelium intact main mesenteric artery assessed as inhibition of U46619-induced contractions; type: functional, tissue-based; details: for EC50: Rattus norvegicus, Wistar, Mesenteric artery
[4] = system: Mesenteric artery; assay: Vasodilating activity in Wistar rat endothelium intact main mesenteric artery assessed as inhibition of U46619-induced contractions at 1000 uM relative to control; type: functional
[5] = system: Mesenteric artery; assay: Vasodilating activity in Wistar rat endothelium-denuded main mesenteric artery preconstricted with 100 nM U46619 assessed as vasorelaxation relative to control; type: functional
[6] = system: Mesenteric artery; assay: Vasodilating activity in Wistar rat endothelium intact main mesenteric artery preconstricted with 100 nM U46619 assessed as vasorelaxation relative to control; type: functional
[7] = system: Mesenteric artery; assay: Vasodilating activity in Wistar rat main mesenteric artery preconstricted with 100 nM U46619 assessed as vasorelaxation in presence of 80 mM KCl relative to control; type: functional
[8] = system: Mesenteric artery; assay: Vasodilating activity in Wistar rat endothelium-denuded main mesenteric artery preconstricted with 100 nM U46619 assessed as vasorelaxation; type: functional, tissue-based
[9] = system: Mesenteric artery; assay: Vasodilating activity in Wistar rat endothelium intact main mesenteric artery preconstricted with 100 nM U46619 assessed as vasorelaxation; type: functional, tissue-based
[10] = system: Mesenteric artery; assay: Vasodilating activity in Wistar rat main mesenteric artery preconstricted with 100 nM U46619 assessed as relaxation preincubated for 20 mins in presence of 1 mM tetraethyl ammonium relative to control; type: functional
[11] = system: Mesenteric artery; assay: Vasodilating activity in Wistar rat main mesenteric artery preconstricted with 100 nM U46619 assessed as vasorelaxation relative to control; type: functional

SMILES: CC(CN(C)C)Oc1cc2ccc(=O)oc2c2c1OC(C)(C)C=C2 (stereo not given)
Emax at 30 µM [1]: < 10%

SMILES: CC1(C)C=Cc2c(c(OCCN3CCCC3)cc3ccc(=O)oc23)O1
Emax at 30 µM [1]: < 10%

SMILES: CCN(CC)CCOc1cc2ccc(=O)oc2c2c1OC(C)(C)C=C2
Emax at 30 µM [1]: < 10%

SMILES: CC1(C)C=Cc2c(c(OCCN3CCCCC3)cc3ccc(=O)oc23)O1
Emax at 30 µM [1]: < 10%

SMILES: CCCCN(C)C(=O)CCCOc1cc2ccc(=O)oc2c2c1OC(C)(C)C=C2
Emax at 30 µM [1]: < 10%

SMILES: CN(C)CCOc1cc2ccc(=O)oc2c2c1OC(C)(C)C=C2
Emax at 30 µM [1]: < 10%

The next lines start with results.

EC50 [3]: 5.02 µM
SMILES: CCCCCN(C)C(=O)CCCCOc1cc2ccc(=O)oc2c2c1OC(C)(C)C=C2
Emax at 30 µM [1]: 83.1% | fold change (FC) [2]: 22.31 | pD2 [3]: 5.299

EC50 [3]: 2.12 µM
SMILES: CCCCN(C)C(=O)CCCCOc1cc2ccc(=O)oc2c2c1OC(C)(C)C=C2
Emax at 30 µM [1]: 63.6% | fold change (FC) [2]: 52.83 | pD2 [3]: 5.674

EC50 [3]: 112 µM
SMILES: COc1cc2ccc(=O)oc2cc1O [SCOPOLETIN]
Emax at 1000 µM [4]: 89.2% | pD2 [3]: 3.95

EC50 [3]: 3.81 µM
SMILES: CCCCCN(C)C(=O)COc1cc2ccc(=O)oc2c2c1OC(C)(C)C=C2
Emax at 30 µM [1]: 94% | fold change (FC) [2]: 29.4 | pD2 [3]: 5.419

EC50 [3]: 1.58 µM
SMILES: COc1cc2ccc(=O)oc2c2c1OC(C)(C)C=C2
Emax [5]: 93.7% | Emax [6]: 94.9% | Emax [7]: 53.3% | Activity [8]: Dose-dependent effect | Activity [9]: Dose-dependent effect | Emax at 30 µM [1]: 96.7% | fold change (FC) [2]: 70.89 | Emax [10]: 54.1% | Emax [11]: 94% | pD2 [3]: 5.802

EC50 [3]: 3.23 µM
SMILES: CCCCCN(C)C(=O)CCCOc1cc2ccc(=O)oc2c2c1OC(C)(C)C=C2
Emax at 30 µM [1]: 95.1% | fold change (FC) [2]: 34.67 | pD2 [3]: 5.491

EC50 [3]: 2.66 µM
SMILES: CCCCN(C)C(=O)COc1cc2ccc(=O)oc2c2c1OC(C)(C)C=C2
Emax at 30 µM [1]: 65.7% | fold change (FC) [2]: 42.11 | pD2 [3]: 5.575

From ChEMBL document CHEMBL4342429, “Synthesis and evaluation of substituted 8,8-dimethyl-8H-pyrano[2,3-f]chromen-2-one derivatives as vasorelaxing agents” (Bioorg Med Chem Lett, 2020)
